Data reported in paper PMC7105882, “Plasmodium Perforin-Like Protein Pores on the Host Cell Membrane Contribute in Its Multistage Growth and Erythrocyte Senescence” (Frontiers in Cellular and Infection Microbiology, 2020).

Target: T1, PfPLP2 (rPMD2, pan-MACPF domain of perforin-like protein 2) (Plasmodium falciparum, UniProt Q8I5P0)
T1 construct: gene PF3D7_1216700; rPMD2, recombinant His-tagged MACPF domain of PfPLP2
Assay: inhibition of erythrocyte lysis by purified rPMD2; thermal protection of purified rPMD2 (modified CETSA)
Format: biochemical

T1 sequence (Q8I5P0 entry or part of it): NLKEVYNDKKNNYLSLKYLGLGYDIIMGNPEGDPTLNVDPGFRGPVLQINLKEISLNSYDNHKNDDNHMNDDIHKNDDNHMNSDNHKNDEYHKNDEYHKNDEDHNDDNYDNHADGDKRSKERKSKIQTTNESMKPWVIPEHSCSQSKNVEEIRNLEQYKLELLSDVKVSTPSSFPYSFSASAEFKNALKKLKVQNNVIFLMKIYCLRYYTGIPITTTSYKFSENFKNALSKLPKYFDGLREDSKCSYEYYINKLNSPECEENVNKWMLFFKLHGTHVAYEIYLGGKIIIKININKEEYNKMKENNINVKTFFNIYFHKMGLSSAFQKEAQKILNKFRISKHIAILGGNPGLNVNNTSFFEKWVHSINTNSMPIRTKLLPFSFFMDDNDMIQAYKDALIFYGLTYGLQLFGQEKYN

Cn1cc(/C=C2\NC(=S)NC2=O)c2ccccc21 [C01, (Z)-5-((1-methyl-1H-indol-3-yl)methylene)-2-thioxoimidazolidin-4-one]
inhibition of erythrocyte lysis by purified rPMD2; thermal protection of purifie: C01 and C02 could inhibit the activity of both rPMD1 and rPMD2 in the sub-micromolar range

O=C1NC(=S)N/C1=C\c1csc2ccccc12 [C02, (Z)-5-(benzo[b]thiophen-3-ylmethylene)-2-thioxoimidazolidin-4-one]
inhibition of erythrocyte lysis by purified rPMD2; thermal protection of purifie: C01 and C02 could inhibit the activity of both rPMD1 and rPMD2 in the sub-micromolar range
